Results reported in patent US20260193229A1, “BRISC DEUBIQUITINATING ENZYME INHIBITORS” (THE TRUSTEES OF THE UNIVERSITY OF PENNSYLVANIA, priority 2022, published 2026).

The compounds below were run on human cells (assay: Cellular toxicity in human cells). Conditions: 5 μM.
Type: cell-based

Compound	cellular toxicity
CS(=O)(=O)n1cc(NC(=O)c2c(Cl)cccc2Cl)c(C(=O)NC2CCNCC2)n1 [Compound 2, 4-(2,6-dichlorobenzamido)-1-(methylsulfonyl)-N-(piperidin-4-yl)-1H-pyrazole-3-carboxamide]	no detectable cellular toxicity

What follows are compounds tested against T1, BRISC (Homo sapiens, UniProt P46736+Q15018) (assay: BRISC DUB inhibition assay with quenched K63-linked di-ubiquitin substrate (TAMRA fluorescence)). Conditions: Table 1, Activity Range Table.
T1 construct: made in house; host or cells: insect cells (MultiBac baculovirus)
Type: biochemical
Description: High throughput screening. A baculoviral expression system was established to purify milligram quantities of the entire BRISC complex from insect cells. The MultiBac system was used to clone all 4 components of the BRISC complex into one vector which was then packaged into the baculovirus genome using the methods described in Zeqiraj et al., 2015 (Mol. Cell).
The assay buffer included: 50 mM HEPES-NaOH, pH 7.0; 100 mM NaCl; 1 mM DTT; 1 mg/ml BSA; and 0.03% Brij-35. BRISC was assayed at 1 nM (final concentration) with the substrate at 500 nM (final concentration). The final reaction volume was 20 μl in each 384 plate well (Corning, #3573; black, low flange, flat bottom) with a final concentration of compounds of 10 μM.
A 5 ml of enzyme solution with BRISC at 2 nM in assay buffer was made by adding 10 μl of BRISC working stock (1 μM) to 5 ml of assay buffer. A 5 ml of substrate solution was made with […] of K63-diUbiquitin (made in-house) plus […] of IQF K63-diUbiquitin by adding the appropriate volumes of diUbiquitins to 5 ml of assay buffer. 45 μL of BRISC (enzyme solution) was dispensed into columns 1-11 of a 96 well PCR plate (skirted). Buffer was only dispensed in column 12 (no enzyme control). 45 μl of substrate solution was dispensed into columns 1-12 of a 96 well PCR plate (skirted). The plate was spun down at 3000 rpm (bench top centrifuge) at room temp for 2 min to remove any air bubbles. Using a Biomek FX, liquid handler (Bekman), 10 μl of BRISC (enzyme solution) was dispensed into the 4 quadrants of a 384 well plate. 200 nl of compounds was dispensed into each well of the 384 plates using the pin tool (columns A and B usually contain DMSO only, and serve as controls), and the plates were incubated for 10-15 minutes at room temperature. 10 μl of substrate solution was dispensed into the 4 quadrants of the 384 well plate. The plate was then incubated for 30 min at room temperature in the dark and read with settings suitable for detecting TAMRA fluorescence (excitation wavelength of 540 nm and emission wavelength of 580 nm). A PHERAStar plate (BMG labtech) reader was used with a gain value of 570. The Intensity/Background (I/Bg), defined as [(Average of columns 1 and 2; DMSO controls)/(Average of columns 23 and 24; no enzyme controls)], were about 5.
The activities of the compounds disclosed in the present disclosure in inhibiting BRCC36 enzyme activity was measured in accordance with the method disclosed in Example 2.

IC50 [µM]	Compound
1 to 10	CN1CCC(NC(=O)c2nn(C(=O)c3c(Cl)cccc3Cl)cc2NC(=O)c2c(Cl)cccc2Cl)CC1 [Compound 37]
50 to 300	O=C(NC1CCNCC1)c1nn(C(=O)Nc2cccc(Cl)c2)cc1NC(=O)c1c(Cl)cccc1Cl [Compound 36]
10 to 50	C[N+]1(C)CCC(NC(=O)c2nn(C(=O)c3c(Cl)cccc3Cl)cc2NC(=O)c2c(Cl)cccc2Cl)CC1 [Compound 29]
50 to 300	O=C(NC1CCNCC1)c1nn(S(=O)(=O)c2cc(C(F)(F)F)ccc2Cl)cc1NC(=O)c1c(Cl)cccc1Cl [Compound 26]
50 to 300	O=C(NC1CCNCC1)c1nn(S(=O)(=O)c2cc(Cl)cc(C(F)(F)F)c2)cc1NC(=O)c1c(Cl)cccc1Cl [Compound 27]
50 to 300	O=C(NC1CCNCC1)c1nn(C(=O)Nc2ccc(Cl)cc2)cc1NC(=O)c1c(Cl)cccc1Cl [Compound 35]
50 to 300	O=C(NC1CCNCC1)c1nn(S(=O)(=O)c2cccc(Cl)c2)cc1NC(=O)c1c(Cl)cccc1Cl [Compound 24]
50 to 300	O=C(NC1CCNCC1)c1nn(S(=O)(=O)c2ccccc2Cl)cc1NC(=O)c1c(Cl)cccc1Cl [Compound 25]
1 to 10	O=C(NC1CCNCC1)c1nn(S(=O)(=O)c2ccc(OCCCN3C(=O)c4ccccc4C3=O)cc2)cc1NC(=O)c1c(Cl)cccc1Cl [Compound 30, 4-(2,6-dichlorobenzamido)-1-(4-(3-(1,3-dioxoisoindolin-2-yl)propoxy)phenylsulfonyl)-N-(piperidin-4-yl)-1H-pyrazole-3-carboxamide]
1 to 10	O=C(NC1CCNCC1)c1nn(S(=O)(=O)CCc2ccc(Cl)cc2)cc1NC(=O)c1c(Cl)cccc1Cl [Compound 31]
50 to 300	NCCCOc1ccc(S(=O)(=O)n2cc(NC(=O)c3c(Cl)cccc3Cl)c(C(=O)NC3CCNCC3)n2)cc1 [Compound 34, 1-(4-(3-aminopropoxy)phenylsulfonyl)-4-(2,6-dichlorobenzamido)-N-(piperidin-4-yl)-1H-pyrazole-3-carboxamide]
50 to 300	COC(=O)c1ccccc1NC(=O)n1cc(NC(=O)c2c(Cl)cccc2Cl)c(C(=O)NCCCN2CCCC2)n1 [Compound 21]
10 to 50	C#CCCCCOC(=O)COc1ccc(S(=O)(=O)n2cc(NC(=O)c3c(Cl)cccc3Cl)c(C(=O)NC3CCNCC3)n2)cc1 [Compound 32, Hex-5-ynyl 2-(4-(4-(2,6-dichlorobenzamido)-3-(piperidin-4-ylcarbamoyl)-1H-pyrazol-1-ylsulfonyl)phenoxy)acetate]
50 to 300	COC(=O)COc1ccc(S(=O)(=O)n2cc(NC(=O)c3c(Cl)cccc3Cl)c(C(=O)NC3CCNCC3)n2)cc1 [Compound 33, Methyl 2-(4-(4-(2,6-dichlorobenzamido)-3-(piperidin-4-ylcarbamoyl)-1H-pyrazol-1-ylsulfonyl)phenoxy)acetate]

The remaining lines, values behind:

Compound	IC50 [µM]
O=C(NCCN1CCCC1)c1nn(C(=O)c2c(Cl)cccc2Cl)cc1NC(=O)c1c(Cl)cccc1Cl [Compound 20]	10 to 50
O=C(N[C@@H]1CCNC1)c1nn(C(=O)c2c(Cl)cccc2Cl)cc1NC(=O)c1c(Cl)cccc1Cl [Compound 8]	1 to 10
NCCCNC(=O)c1nn(C(=O)c2c(Cl)cccc2Cl)cc1NC(=O)c1c(Cl)cccc1Cl [Compound 10]	1 to 10
O=C(NC1C2CNCC21)c1nn(C(=O)c2c(Cl)cccc2Cl)cc1NC(=O)c1c(Cl)cccc1Cl (stereo not shown) [Compound 13]	1 to 10
O=C(NC1CNC1)c1nn(C(=O)c2c(Cl)cccc2Cl)cc1NC(=O)c1c(Cl)cccc1Cl [Compound 17]	10 to 50
COc1ccccc1NC(=O)n1cc(NC(=O)c2c(Cl)cccc2Cl)c(C(=O)NC2CCNCC2)n1 [Compound 18, 4-(2,6-dichlorobenzamido)-N1-(2-methoxyphenyl)-N3-(piperidin-4-yl)-1H-pyrazole-1,3-dicarboxamide]	10 to 50
CC1CNCCC1NC(=O)c1nn(C(=O)c2c(Cl)cccc2Cl)cc1NC(=O)c1c(Cl)cccc1Cl (stereo not shown) [Compound 12]	1 to 10
O=C(NC1CCNCC1)c1nn(S(=O)(=O)c2ccc(Cl)cc2)cc1NC(=O)c1c(Cl)cccc1Cl [Compound 4]	1 to 10
CS(=O)(=O)n1cc(NC(=O)c2c(Cl)cccc2Cl)c(C(=O)NC2CCNCC2)n1 [Compound 2, 4-(2,6-dichlorobenzamido)-1-(methylsulfonyl)-N-(piperidin-4-yl)-1H-pyrazole-3-carboxamide]	1 to 10
O=C(N[C@H]1CCNC1)c1nn(C(=O)c2c(Cl)cccc2Cl)cc1NC(=O)c1c(Cl)cccc1Cl [Compound 9]	1 to 10
CN(C(=O)c1nn(C(=O)c2c(Cl)cccc2Cl)cc1NC(=O)c1c(Cl)cccc1Cl)C1CCNCC1 [Compound 11]	1 to 10
COc1ccccc1NC(=O)n1cc(NC(=O)c2c(Cl)cccc2Cl)c(C(=O)NC2CCNCC2)n1 [Compound 19]	10 to 50
O=C(NC1CCNCC1)c1nn(S(=O)(=O)c2cc(Cl)cc(Cl)c2)cc1NC(=O)c1c(Cl)cccc1Cl [Compound 3]	1 to 10
O=C(NC1CCNCC1)c1nn(S(=O)(=O)c2ccccc2)cc1NC(=O)c1c(Cl)cccc1Cl [Compound 5]	10 to 50
CN(C(=O)c1nn(C(=O)c2c(Cl)cccc2Cl)cc1NC(=O)c1c(Cl)cccc1Cl)C1CNC1 [Compound 15]	10 to 50
O=C(NC1CCNCC1)c1nn(S(=O)(=O)CCc2ccccc2)cc1NC(=O)c1c(Cl)cccc1Cl [Compound 6]	1 to 10
O=C(Nc1cn(C(=O)c2c(Cl)cccc2Cl)nc1C(=O)N1CCNCC1)c1c(Cl)cccc1Cl [Compound 7]	1 to 10

Same assay, conditions: Table 2, method of Example 2; read-out: BRISC IC50 μM Range

IC50 [µM]	Compound
1 to 10	C#CCCCCOc1ccc(S(=O)(=O)n2cc(NC(=O)c3c(Cl)cccc3Cl)c(C(=O)NC3CCNCC3)n2)cc1 [Compound 41, 4-(2,6-Dichlorobenzamido)-1-(4-(hex-5-ynyloxy)phenylsulfonyl)-N-(piperidin-4-yl)-1H-pyrazole-3-carboxamide]
1 to 10	C[C@@H]1CNCCN1C(=O)c1nn(C(=O)c2c(Cl)cccc2Cl)cc1NC(=O)c1c(Cl)cccc1Cl [Compound 55]
10 to 50	COC(=O)c1cnc2c(SCc3ccccn3)cccc2c1 [Compound 54]

The remaining lines, values behind:

Compound	IC50 [µM]
Cc1ncsc1-c1ccc(CNC(=O)[C@@H]2C[C@H](O)CN2C(=O)[C@@H](NC(=O)COCCOCCOCCn2cc(CCCCOc3ccc(S(=O)(=O)n4cc(NC(=O)c5c(Cl)cccc5Cl)c(C(=O)NC5CCNCC5)n4)cc3)nn2)C(C)(C)C)cc1 [Compound 43, 4-(2,6-dichlorobenzamido)-1-(4-(4-(1-((S)-13-((2S,4S)-4-hydroxy-2-(4-(4-methylthiazol-5-yl)benzylcarbamoyl)pyrrolidine-1-carbonyl)-14,14-dimethyl-11-oxo-3,6,9-trioxa-12-azapentadecyl)-1H-1,2,3-triazol-4-yl)butoxy)phenylsulfonyl)-N-(piperidin-4-yl)-1H-pyrazole-3-carboxamide]	0.1 to 1
CCOc1cc(C(C)(C)C)ccc1C1=N[C@@](C)(c2ccc(Cl)cc2)[C@@](C)(c2ccc(Cl)cc2)N1C(=O)N1CCN(CC(=O)NCCOCCOCCn2cc(CCCCOc3ccc(S(=O)(=O)n4cc(NC(=O)c5c(Cl)cccc5Cl)c(C(=O)NC5CCNCC5)n4)cc3)nn2)CC1 [Compound 42, 1-(4-(4-(1-(2-(2-(2-(2-(4-((4S,5R)-2-(4-Tert-butyl-2-ethoxyphenyl)-4,5-bis(4-chlorophenyl)-4,5-dimethyl-4,5-dihydro-1H-imidazole-1-carbonyl)piperazin-1-yl)acetamido)ethoxy)ethoxy)ethyl)-1H-1,2,3-triazol-4-yl)butoxy)phenylsulfonyl)-4-(2,6-dichlorobenzamido)-N-(piperidin-4-yl)-1H-pyrazole-3-carboxamide]	0.1 to 1
